Data published in patent US11066692B2, “Real-time monitoring” (PROMEGA CORPORATION, priority 2012, dated 2021).

Columns and labels:
[1] = system: reactive oxygen species (ROS) in A549 cells; experiment: Real-time monitoring of reactive oxygen species (ROS); format: cell-based; settings: 200 μM, 10, 25 or 50 μM PBI-4759, 40 ng/ml NANOLUC
Experimental: A549 cells were plated at 1,000 cells/well into wells of a 384-well plate and incubated overnight. Then, either 10, 25, or 50 μM of a pro-furimazine hydrogen peroxide substrate, PBI-4759, and 40 ng/ml NANOLUC luciferase protein sensor were added to the cells. Menadione (200 μM), a known ROS inducer, or a vehicle control (DMSO) was added to the cells. Luminescence was monitored over time using a Tecan M1000 plate reader.

[2] = system: caspase activation in A549 cells; experiment: Real-time monitoring of caspase activation; format: cell-based; settings: 4 μM final concentration, 50 μM PBI-3741, 40 ng/ml NANOLUC
Experimental: A549 cells were plated at 1,000 cells/well into wells of a 384-well assay plate. 50 μM PBI-3741 (a pro-furimazine caspase substrate) and 40 ng/ml NANOLUC luciferase enzyme were added to the cells. To induce apoptosis, staurosporine was added to the cells at a 4 μM final concentration. The induction of apoptosis and activation of caspase were measured in real-time.

[3] = Stability of pro-furimazine substrate PBI-4600 in cell culture media (HPLC purity); format: physicochemical; settings: 50 μM in RPMI cell culture media, room temperature or 37° C., up to 190 hours
Experimental: PBI-4600 (50 μM) was incubated in RPMI cell culture media at room temperature (RT) or 37° C. for increasing time points, up to 190 hours. HPLC analysis was performed to determine the purity of PBI-4600 at various time points.

A549 cells = experiment: Measuring cell death in real-time; format: cell-based; settings: 1% final concentration, A549 cells 1,000 cells/well; 40 μM PBI-4600, 100 ng/ml NANOLUC
Experimental: A549 cells were plated into wells of a 384-well plate at 1,000 cells/well in the presence of 40 μM PBI-4600 pro-substrate and 100 ng/ml NANOLUC luciferase protein sensor. The cells were incubated and the luminescence signal was monitored at various time points on a Tecan M1000 plate reader. Triton X-100 was then added to a final concentration of 1%, and compared to control cells that received media only. Luminescence was continually monitored.

Cardiomyocyte cells = experiment: Real-time measuring of drug induced changes in viability; format: cell-based; settings: 200 μg/ml final, after multiple days of cell growth; 40 uM PBI-4600, 100 ng/ml NANOLUC
Experimental: Cardiomyocyte cells were plated and grown in media containing 40 uM PBI-4600 pro-substrate and 100 ng/ml NANOLUC luciferase protein sensor in a 37° C., 5% CO2 incubator. At various time points, luminescence was monitored on a Tecan M1000 plate reader. After multiple days of cell growth, digitonin was added to a final concentration of 200 μg/ml. Luminescence was read continually, starting immediately after digitonin addition.

[4] = Protein sensor stability in cell culture; format: physicochemical; settings: 40 ng/ml in A549 cell culture with 50 μM PBI-4600; signal compared with freshly added sensor
Experimental: A549 cells were plated at 250 cells/well into wells of a 384-well assay plate. 50 μM PBI-4600 pro-substrate and 40 ng/ml NANOLUC luciferase protein sensor were added to the cell culture and incubated for 72 hours. After incubation, 40 ng/ml NANOLUC luciferase protein sensor was added to the cell culture, and the signal was monitored 1.5 hours later.

For `CC1=CC(=O)c2ccccc2C1=O` [menadione, Menadione], the “time at which maximum luminescence signal was reached after addition” value [1] was 5 h.

For `CN[C@@H]1C[C@H]2O[C@@](C)([C@@H]1OC)n1c3ccccc3c3c4c(c5c6ccccc6n2c5c31)C(=O)NC4` [staurosporine], the “change in luminescence (caspase activation) during treatment” value [2] was “increase in luminescence”.

With `CC1=C(C)C(=O)C(C(C)(C)CC(=O)N(C)CCN(C)C(=O)Oc2c(Cc3ccco3)nc3c(Cc4ccccc4)nc(-c4ccccc4)cn23)=C(C)C1=O` [PBI-4600] the “purity of PBI-4600 (HPLC) after incubation” value [3] was “greater than 90%”.

In the case of Triton X-100, the “change in luminescence signal (cell viability) after addition” value (A549 cells) is reported as “rapid decrease in signal”.

With `C[C@@H]1CC[C@@]2(OC1)O[C@H]1[C@@H](O)[C@H]3[C@@H]4CC[C@H]5C[C@@H](O[C@@H]6O[C@H](CO)[C@H](O[C@@H]7O[C@H](CO)[C@@H](O)[C@H](O[C@@H]8OC[C@@H](O)[C@H](O)[C@H]8O)[C@H]7O[C@@H]7O[C@H](CO)[C@H](O)[C@H](O[C@@H]8O[C@H](CO)[C@@H](O)[C@H](O)[C@H]8O)[C@H]7O)[C@H](O)[C@H]6O)[C@H](O)C[C@]5(C)[C@H]4CC[C@]3(C)[C@H]1[C@@H]2C` [digitonin] the “change in luminescence signal (cell viability) after addition” value (Cardiomyocyte cells) was “rapid decrease in signal”.

B1: NANOLUC luciferase: modified, enhanced luciferase enzyme from Oplophorus, Promega Corporation, SEQ ID NO: 1 (protein)
chain: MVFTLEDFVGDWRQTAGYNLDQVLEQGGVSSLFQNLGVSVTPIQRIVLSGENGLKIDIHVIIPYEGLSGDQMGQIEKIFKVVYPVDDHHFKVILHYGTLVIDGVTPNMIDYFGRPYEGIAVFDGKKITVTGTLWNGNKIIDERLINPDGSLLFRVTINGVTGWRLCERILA
For B1, the “time stable in cell culture conditions” value [4] was “at least 72 h”.
